Values joined by “and” are separate entries in the source; they are usually repeats but may differ in a detail not shown here. Equal entries are not always repeated. Inconclusive results and toxic doses are left out. Peptide text beside a SMILES is read from it.
Tested on: BDF1 mice, B16 melanoma ip, median survival T/C
Assay: NCI In Vivo Anticancer Drug Screen. Data for tumor model B16 Melanoma (intraperitoneal) in B6D2F1 (BDF1) mice
Conditions: endpoint: median survival time, higher = longer survival
Procedure, shortened: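 Vehicle-treated animals serve as the reference (C); treated animals (T) are scored for survival or tumor size after tumor transplantation.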

[1] = dose: 20.0 mg/kg/injection, schedule: Q01DX009 (ip), vehicle: saline with Tween-80
[2] = dose: 40.0 mg/kg/injection, schedule: Q01DX009 (ip), vehicle: saline with Tween-80
[3] = dose: 100.0 mg/kg/injection, schedule: Q01DX009 (ip), vehicle: saline with Tween-80
[4] = dose: 200.0 mg/kg/injection, schedule: Q01DX009 (ip), vehicle: saline with Tween-80
[5] = dose: 50.0 mg/kg/injection, schedule: Q01DX009 (ip), vehicle: Klucel (hydroxypropylcellulose) (HPC)
[6] = dose: 100.0 mg/kg/injection, schedule: Q01DX009 (ip), vehicle: Klucel (hydroxypropylcellulose) (HPC)
[7] = dose: 200.0 mg/kg/injection, schedule: Q01DX009 (ip), vehicle: Klucel (hydroxypropylcellulose) (HPC)
[8] = dose: 12.5 mg/kg/injection, schedule: Q01DX009 (ip), vehicle: saline with Tween-80
[9] = dose: 25.0 mg/kg/injection, schedule: Q01DX009 (ip), vehicle: saline with Tween-80
[10] = dose: 50.0 mg/kg/injection, schedule: Q01DX009 (ip), vehicle: saline with Tween-80

Structure (SMILES): CCCCCCCCCCCCCCCCCCNC(=O)Nc1cc(C)ccc1C
- T/C (dose: 25.0 mg/kg/injection, schedule: Q01DX009 (ip), vehicle: gum acacia): 100 % of control
- T/C (dose: 50.0 mg/kg/injection, schedule: Q01DX009 (ip), vehicle: gum acacia): 93 % of control
- T/C (dose: 100.0 mg/kg/injection, schedule: Q01DX009 (ip), vehicle: gum acacia): 107 % of control

Structure (SMILES): [Cl][Pt+2][Cl].[NH-]C1CCCC1.[NH-]C1CCCC1
- T/C (dose: 2.5 mg/kg/injection, schedule: Q01DX009 (ip), vehicle: Klucel (hydroxypropylcellulose) (HPC)): 107 % of control
- T/C (dose: 5.0 mg/kg/injection, schedule: Q01DX009 (ip), vehicle: Klucel (hydroxypropylcellulose) (HPC)): 117 % of control
- T/C (dose: 10.0 mg/kg/injection, schedule: Q01DX009 (ip), vehicle: Klucel (hydroxypropylcellulose) (HPC)): 112 % of control
- T/C (dose: 10.0 mg/kg/injection, schedule: Q01DX009 (ip), vehicle: olive oil, sesame oil, peanut oil): 104 % of control
- T/C (dose: 10.0 mg/kg/injection, schedule: Q01DX009 (ip), vehicle: saline with Tween-80): 109 % of control
- T/C (dose: 10.0 mg/kg/injection, schedule: Q01DX009 (ip), vehicle: saline): 110 % of control
- T/C [1]: 117 % of control
- T/C (dose: 20.0 mg/kg/injection, schedule: Q01DX009 (ip), vehicle: saline): 124 % of control
- T/C [2]: 117 % of control
- T/C (dose: 40.0 mg/kg/injection, schedule: Q04DX003 (ip), vehicle: Klucel (hydroxypropylcellulose) (HPC)): 108 % of control
- T/C (dose: 40.0 mg/kg/injection, schedule: Q04DX003 (ip), vehicle: saline): 122 % of control
- T/C (dose: 80.0 mg/kg/injection, schedule: Q01DX001 (ip), vehicle: Klucel (hydroxypropylcellulose) (HPC)): 105 % of control
- T/C (dose: 80.0 mg/kg/injection, schedule: Q01DX001 (ip), vehicle: saline): 117 % of control
- T/C (dose: 80.0 mg/kg/injection, schedule: Q01DX009 (ip), vehicle: Klucel (hydroxypropylcellulose) (HPC)): 115 % of control
- T/C (dose: 80.0 mg/kg/injection, schedule: Q01DX009 (ip), vehicle: saline with Tween-80): 109 % of control
- T/C (dose: 80.0 mg/kg/injection, schedule: Q04DX003 (ip), vehicle: Klucel (hydroxypropylcellulose) (HPC)): 105 % of control
- T/C (dose: 160.0 mg/kg/injection, schedule: Q01DX001 (ip), vehicle: Klucel (hydroxypropylcellulose) (HPC)): 117 % of control
- T/C (dose: 160.0 mg/kg/injection, schedule: Q01DX009 (ip), vehicle: saline): 94 % of control
- T/C (dose: 160.0 mg/kg/injection, schedule: Q04DX003 (ip), vehicle: Klucel (hydroxypropylcellulose) (HPC)): 105 % of control
- T/C (dose: 320.0 mg/kg/injection, schedule: Q01DX001 (ip), vehicle: Klucel (hydroxypropylcellulose) (HPC)): 123 % of control
- T/C (dose: 320.0 mg/kg/injection, schedule: Q04DX003 (ip), vehicle: Klucel (hydroxypropylcellulose) (HPC)): 114 % of control
- T/C (dose: 640.0 mg/kg/injection, schedule: Q04DX003 (ip), vehicle: saline): 105 % of control

Structure (SMILES): COc1ccccc1CC(C)N (centres undefined)
- T/C [1]: 97 % of control
- T/C [2]: 95 % of control

Structure (SMILES): ClC1(c2ccccc2)c2ccc(Br)cc2-c2cc(Br)ccc21
- T/C [3]: 89 % of control
- T/C [4]: 92 % of control

Structure (SMILES): CN(C(=N)N)c1ccc(C(=O)Oc2ccc([N+](=O)[O-])cc2)cc1
- T/C [5]: 104 % of control
- T/C [6]: 101 % of control
- T/C [7]: 103 % of control

Structure (SMILES): CCCCOc1ccc(NC(=O)CCl)cc1
- T/C [8]: 99 % of control
- T/C [9]: 100 % of control
- T/C [10]: 99 % of control

Structure (SMILES): CS(=O)(=O)OCCN(CCOS(C)(=O)=O)c1ccc(/C=N/Nc2ncnc3nc[nH]c23)cc1
- T/C [9]: 115 % of control
- T/C [10]: 110 % of control
- T/C [3]: 105 % of control and 113 % of control
- T/C (dose: 400.0 mg/kg/injection, schedule: Q04DX003 (ip), vehicle: saline with Tween-80): 91 % of control and 121 % of control

Structure (SMILES): CC(=O)Nc1ccc(Cl)c(Cl)c1
- T/C [5]: 116 % of control
- T/C [6]: 121 % of control

Structure (SMILES): CC(=O)N(C)C(C(=O)N1CC(C)CC1C(=O)N(C)C1C(=O)NC(CC(C)C)C(=O)N2CC(C)CC2C(=O)NC(CC(C)C)C(=O)N(C)C(C(C)C)C(=O)N2CCCC2C(=O)N(C)C(CC(C)C)C(=O)NCC(=O)OC1C)C(C)C (centres undefined)
- T/C (dose: 18.75 mg/kg/injection, schedule: Q01DX009 (ip), vehicle: Klucel (hydroxypropylcellulose) (HPC)): 94 % of control
- T/C (dose: 37.5 mg/kg/injection, schedule: Q01DX009 (ip), vehicle: Klucel (hydroxypropylcellulose) (HPC)): 97 % of control
- T/C (dose: 75.0 mg/kg/injection, schedule: Q01DX009 (ip), vehicle: Klucel (hydroxypropylcellulose) (HPC)): 94 % of control

Structure (SMILES): COC1=C(OC)C(=O)C(C/C=C(\C)CC/C=C(\C)CC/C=C(\C)CC/C=C(\C)CC/C=C(\C)CC/C=C(\C)CC/C=C(\C)CC/C=C(\C)CCC=C(C)C)=C(C)C1=O
- T/C (dose: 10.0 mg/kg/injection, schedule: Q01DX025 (ip), vehicle: saline with Tween-80): 81 % of control
- T/C (dose: 20.0 mg/kg/injection, schedule: Q01DX025 (ip), vehicle: saline with Tween-80): 102 % of control
- T/C (dose: 40.0 mg/kg/injection, schedule: Q01DX025 (ip), vehicle: saline with Tween-80): 100 % of control

Structure (SMILES): COc1cc2c(cc1OC)-c1ccc3cc4c(cc3c1N(C)C2)OCO4
- T/C (dose: 5.0 mg/kg/injection, schedule: Q01DX009 (ip), vehicle: water): 103 % of control
- T/C (dose: 10.0 mg/kg/injection, schedule: Q01DX009 (ip), vehicle: water): 102 % of control
- T/C (dose: 20.0 mg/kg/injection, schedule: Q01DX009 (ip), vehicle: water): 100 % of control
- T/C (dose: 40.0 mg/kg/injection, schedule: Q01DX009 (ip), vehicle: water): 101 % of control
- T/C (dose: 80.0 mg/kg/injection, schedule: Q01DX009 (ip), vehicle: water): 102 % of control

Structure (SMILES): CC(C)CCCCCCCCCCCCC(=O)NCC(=O)NC1C(O)C(O)C(Nc2ncnc3nc[nH]c23)OC1C(O)CO (centres undefined)
- T/C (dose: 0.25 mg/kg/injection, schedule: Q01DX009 (ip), vehicle: Klucel (hydroxypropylcellulose) (HPC)): 114 % of control
- T/C (dose: 1.0 mg/kg/injection, schedule: Q01DX009 (ip), vehicle: saline): 151 % of control
- T/C (dose: 62.5 micrograms/kg/injection, schedule: Q01DX009 (ip), vehicle: saline): 98 % of control
- T/C (dose: 125.0 micrograms/kg/injection, schedule: Q01DX009 (ip), vehicle: saline): 98 % of control
- T/C (dose: 250.0 micrograms/kg/injection, schedule: Q01DX009 (ip), vehicle: saline): 98 % of control
- T/C (dose: 500.0 micrograms/kg/injection, schedule: Q01DX009 (ip), vehicle: saline): 107 % of control

Structure (SMILES): CC(C)C(NC(=O)C(N)CCC(=O)O)C(=O)O (stereo not drawn) (H-Glu-Val-OH; configuration not given here)
- T/C [10]: 109 % of control
- T/C [3]: 104 % of control
- T/C [4]: 108 % of control
- T/C (dose: 400.0 mg/kg/injection, schedule: Q01DX009 (ip), vehicle: saline with Tween-80): 98 % of control

Structure (SMILES): Nc1ccc(C(=O)O)c(O)c1
- T/C (dose: 9.3 mg/kg/injection, schedule: Q01DX009 (ip), vehicle: saline with Tween-80): 98 % of control
- T/C (dose: 18.7 mg/kg/injection, schedule: Q01DX009 (ip), vehicle: saline with Tween-80): 99 % of control
- T/C (dose: 37.5 mg/kg/injection, schedule: Q01DX009 (ip), vehicle: saline with Tween-80): 98 % of control
- T/C (dose: 75.0 mg/kg/injection, schedule: Q01DX009 (ip), vehicle: saline with Tween-80): 89 % of control

Structure (SMILES): Cn1nc(N)c2ncc(-c3ccc(Cl)cc3)nc21
- T/C [8]: 91 % of control
- T/C [9]: 90 % of control

Structure (SMILES): COc1ccccc1NC(=O)Nc1ccccc1
- T/C [6]: 104 % of control
- T/C [7]: 103 % of control
- T/C (dose: 400.0 mg/kg/injection, schedule: Q01DX009 (ip), vehicle: Klucel (hydroxypropylcellulose) (HPC)): 109 % of control

Structure (SMILES): CC(C)NNC(=O)c1ccc(Cl)cc1
- T/C (dose: 6.25 mg/kg/injection, schedule: Q01DX009 (ip), vehicle: Klucel (hydroxypropylcellulose) (HPC)): 89 % of control
- T/C (dose: 12.5 mg/kg/injection, schedule: Q01DX009 (ip), vehicle: Klucel (hydroxypropylcellulose) (HPC)): 92 % of control
- T/C (dose: 25.0 mg/kg/injection, schedule: Q01DX009 (ip), vehicle: Klucel (hydroxypropylcellulose) (HPC)): 89 % of control
- T/C [5]: 94 % of control
- T/C [6]: 107 % of control

Structure (SMILES): CCN(CC)Cc1c(C)cc2oc(=O)c3c(c2c1O)CCCC3
- T/C (dose: 16.0 mg/kg/injection, schedule: Q01DX009 (ip), vehicle: Klucel (hydroxypropylcellulose) (HPC)): 98 % of control
- T/C (dose: 32.0 mg/kg/injection, schedule: Q01DX009 (ip), vehicle: Klucel (hydroxypropylcellulose) (HPC)): 100 % of control
- T/C (dose: 64.0 mg/kg/injection, schedule: Q01DX009 (ip), vehicle: Klucel (hydroxypropylcellulose) (HPC)): 88 % of control

— PubChem BioAssay AID192 (DTP/NCI, 2004)
